What was measured:
[1] = target: T1, USP39_T2 (Homo sapiens, UniProt Q53GS9); assay: Competitive FP assay, tracer USP39_B1-FITC; type: binding; settings: for Binding in competitive FP screening normalized to USP39_B1: 5 µM compound concentration; for IC50: tracer USP39_B1-FITC, protein USP39_T2
T1 construct: USP39_T2 (ZNF domain only); made in house
T1 sequence (Q53GS9 103-200 limits assumed): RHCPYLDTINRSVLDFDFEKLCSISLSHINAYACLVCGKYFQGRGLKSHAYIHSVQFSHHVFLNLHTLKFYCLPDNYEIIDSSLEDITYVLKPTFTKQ
Text: The compound label is taken from plot legend entries such as 'WT_USP39_B1'. / Panel e: the picture prints no compound label. WT, M1 and M2 are protein variants (targets), not substances.
To systematically investigate structure–activity relationships, we synthesized a series of derivatives by modifying the phenyl ring, either by substituting the chlorine atom with other halogens or varying the substitution pattern (Figure SI2B).
Figure 3 Design and in vitro characterization of USP39‐targeting PROTACs. a) Synthetic strategy for PROTAC synthesis. […] USP39_B1‐FITC served as the tracer, while USP39_T2 acted as the protein. The results were obtained from two independent experiments, each performed in triplicates and are presented as mean ± SD. e) Predicted results from AI‐Based DMPK analysis. MW: Molecular weight; HBA: H‐Bond acceptors; HBD: H‐Bond donors; Con_LogP: Consensus LogP; RotB: Rotatable Bonds; TPSA: Topological polar surface area; ESOL_LogS: predicted aqueous solubility (Log10 mol L^−1); GI: Gastrointestinal absorption; BBB: Blood–brain barrier. A comprehensive overview of all PROTACs and related data is available in Table SI5 of the Supporting Information.

[2] = target: T1, USP39_T2; assay: Isothermal titration calorimetry (ITC); type: binding
[3] = target: His-tagged USP39 and GST-tagged VHL (Homo sapiens, UniProt P40337+Q53GS9); assay: Alpha assay of ternary complex formation; type: binding
His-tagged USP39 and GST-tagged VHL, sequence (Q53GS9 whole entry): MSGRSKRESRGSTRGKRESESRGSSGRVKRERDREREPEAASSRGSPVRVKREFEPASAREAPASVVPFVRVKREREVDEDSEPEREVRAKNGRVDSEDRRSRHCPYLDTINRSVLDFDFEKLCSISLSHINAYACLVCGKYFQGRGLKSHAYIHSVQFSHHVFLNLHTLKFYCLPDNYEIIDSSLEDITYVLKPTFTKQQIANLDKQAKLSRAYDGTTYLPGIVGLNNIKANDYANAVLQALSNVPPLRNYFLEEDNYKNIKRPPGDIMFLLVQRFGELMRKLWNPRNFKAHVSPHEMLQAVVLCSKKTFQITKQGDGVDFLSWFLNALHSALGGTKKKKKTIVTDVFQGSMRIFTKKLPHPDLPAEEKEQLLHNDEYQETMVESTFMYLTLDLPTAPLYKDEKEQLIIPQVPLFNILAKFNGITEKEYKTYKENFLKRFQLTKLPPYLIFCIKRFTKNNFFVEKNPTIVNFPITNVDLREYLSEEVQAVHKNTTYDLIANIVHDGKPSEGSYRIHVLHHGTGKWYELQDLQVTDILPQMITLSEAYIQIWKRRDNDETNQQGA
His-tagged USP39 and GST-tagged VHL, sequence (P40337 whole entry): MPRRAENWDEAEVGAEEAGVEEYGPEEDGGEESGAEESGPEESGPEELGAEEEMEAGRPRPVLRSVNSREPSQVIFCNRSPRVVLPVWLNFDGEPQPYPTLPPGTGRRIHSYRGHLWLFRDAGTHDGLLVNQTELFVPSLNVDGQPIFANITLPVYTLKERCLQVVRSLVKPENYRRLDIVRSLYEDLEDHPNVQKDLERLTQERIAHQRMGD

[4] = target: T2, FKBP12^F36V-USP39 (Homo sapiens, UniProt, F37V); assay: dTAG system degradation of FKBP12^F36V-USP39; type: cell-based
T2 construct: expressed in transfected cells
T2 sequence (P62942 whole entry F37V): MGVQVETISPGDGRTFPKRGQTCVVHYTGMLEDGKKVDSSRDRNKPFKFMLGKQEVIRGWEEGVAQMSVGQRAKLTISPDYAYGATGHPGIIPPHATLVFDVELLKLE
T2 sequence (Q96SW2 whole entry, further chain): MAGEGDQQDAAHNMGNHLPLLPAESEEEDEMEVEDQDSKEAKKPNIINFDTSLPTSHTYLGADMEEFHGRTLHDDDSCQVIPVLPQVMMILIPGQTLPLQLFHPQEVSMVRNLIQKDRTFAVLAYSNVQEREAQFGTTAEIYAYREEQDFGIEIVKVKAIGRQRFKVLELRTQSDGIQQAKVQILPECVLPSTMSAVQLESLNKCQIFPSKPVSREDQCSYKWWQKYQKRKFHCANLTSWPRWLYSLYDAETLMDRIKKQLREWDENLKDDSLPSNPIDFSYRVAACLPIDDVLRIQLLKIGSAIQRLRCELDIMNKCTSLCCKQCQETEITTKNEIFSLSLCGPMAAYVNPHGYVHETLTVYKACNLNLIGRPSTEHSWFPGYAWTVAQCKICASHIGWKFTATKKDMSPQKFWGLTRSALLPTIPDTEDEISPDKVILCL
Text: (§1) To investigate whether USP39 can be degraded through the ubiquitin‐proteasome system, we utilized the dTAG system by fusing FKBP12^F36V to the N‐terminus of USP39 (Figure SI1A).^[ [22] ^]

[5] = target: T3, FKBP12^F36V-USP39 (Homo sapiens, UniProt P62942+Q96SW2, F37V); assay: dTAG system degradation of FKBP12^F36V-USP39; type: cell-based
T3 construct: expressed in transfected cells
T3 sequence (P62942 whole entry F37V): as the sequence (P62942 whole entry F37V) above
T3 sequence (Q96SW2 whole entry): as the sequence (Q96SW2 whole entry, further chain) above
Text: as §1

## CCOC(=O)c1csc(Nc2cccc(F)c2)n1 [USP39_B3]
[1]
  Binding in competitive FP screening normalized to USP39_B1: significantly improved binding affinity
  IC50: 1180 nM

## CCOC(=O)c1csc(Nc2ccc(Cl)cc2)n1 [USP39_B1]
[2]
  Kd by ITC: did not yield a clear binding isotherm
[3]
  Kd of ternary complex formation (Alpha assay): no clear interaction was observed
[1]; at 50 µM, USP39_T2, tracer USP39_B1-FITC
  Inhibitory effect in competitive FP assay: weak inhibitory effect
[1]
  IC50: > 50000 nM

## CCOC(=O)c1csc(Nc2ccccc2Cl)n1 [C4]
[1]
  Binding in competitive FP screening normalized to USP39_B1: failed to show measurable binding

## CC[C@H](C(=O)N1CCCC[C@H]1C(=O)O[C@H](CCc1ccc(OC)c(OC)c1)c1ccccc1OCC(=O)NCCCCCCOc1cccc2c1C(=O)N(C1CCC(=O)NC1=O)C2=O)c1cc(OC)c(OC)c(OC)c1 (stereo partly drawn) [dTAG13]
[4]
  Effect on endogenous USP39 levels: without affecting
[5]
  Time to degradation of FKBP12^F36V-USP39: ≤ 24 h
